Test results published in article PMC6337588, “Multi-Target Cinnamic Acids for Oxidative Stress and Inflammation: Design, Synthesis, Biological Evaluation and Modeling Studies” (Molecules, 2018).
Where “and” joins values, the source holds several entries; their conditions need not be identical. Identical values can stand only once.

Key:
[1] = Non enzymatic assay of superoxide radical scavenging activity (PMS/NADH/NBT); format: biochemical
Procedure: Superoxide radical is a main cause of oxidative stress, expressing its biological toxicity by the inactivation of iron-sulfur cluster containing enzymes. The superoxide anion radical (O2^−^•) is less toxic than the hydroxyl radical, but still being one of the most known toxic reactive oxygen species (ROS). In this assay the superoxide anion radicals were generated by a non-enzymatically assay and the compounds are tested at 100 μM final concentration (Table 2). Caffeic acid (CA) has been used as a reference compound. Compound 4ii presented the highest activity, followed by compound 3ii. We succeeded to derive a quantitative-structure activity relationship model for this activity in which the topological polar surface (TPAS) of the compounds seem to govern the superoxide anion scavenging activity:% Superoxide Anion Scavenging Activity (100 µM) = 0.019 (±0.007) TPSA + 0.813 (±0.358) n = 6, r = 0.962, r^2 = 0.926, q^2 = 0.694, s = 0.122, Q = 7.885, F1,6 = 3.701, α = 0.1 clog P vs. TPSA 0.
The superoxide radicals are generated by mixing N-methylphenazonium methyl sulfate (PMS), NADH and air–oxygen and determined by the nitroblue tetrazolium method and measured at 560 nm (Table 2). Caffeic acid was used as reference compound [17, 18, 28].

[2] = Experimental lipophilicity as RM values by reversed phase TLC (RPTLC); format: physicochemical; details: methanol/water 77/23 with 0.1% acetic acid, 24 °C, average of at least 5 measurements
Text: Lipophilicity is a physicochemical property correlated with the biological activity. Lipophilicity influences ligand-target binding interactions, solubility, absorption, distribution, bioavailability, metabolism and elimination (ADME) and toxicological outcomes. The lipophilicity of the novel cinnamic acids was experimentally measured as RM values using a reverse phase thin layer chromatography (RPTLC) method. This is acknowledged as a reliable, fast and convenient approach for expressing lipophilicity (Table 1). RM relates to the thermodynamic Rf value in a logarithmic form. Bate-Smith and Westall firstly determined lipophilicity as RM values in 1950 [31]. The Br-substituted derivatives 1i–7i are more lipophilic than the OH-substituted ones 1ii–7ii which can be easily explained by their structural characteristics.
Reversed phase TLC (RPTLC) was performed on silica gel plates impregnated with 55% (v/v) liquid paraffin in light petroleum ether. The mobile phase was a methanol/water mixture (77/23, v/v) containing 0.1% of acetic acid. The plates were developed in closed chromatography tanks saturated with the mobile phase at 24 °C. Spots were detected under UV light. RM values were determined from the corresponding Rf values (from five individual measurements) using the equation RM = log[(1/Rf) − 1] [17, 18, 28].

soybean lipoxygenase = target: T1, soybean lipoxygenase (Glycine max, UniProt P08170); test: Soybean lipoxygenase inhibition in vitro; format: biochemical; details: sodium linoleate 0.1 mM, 234 nm, read-out: LOX IC50
T1 construct: purchased Sigma Chemical, Co. (St. Louis)
T1 sequence (P08170 1-839): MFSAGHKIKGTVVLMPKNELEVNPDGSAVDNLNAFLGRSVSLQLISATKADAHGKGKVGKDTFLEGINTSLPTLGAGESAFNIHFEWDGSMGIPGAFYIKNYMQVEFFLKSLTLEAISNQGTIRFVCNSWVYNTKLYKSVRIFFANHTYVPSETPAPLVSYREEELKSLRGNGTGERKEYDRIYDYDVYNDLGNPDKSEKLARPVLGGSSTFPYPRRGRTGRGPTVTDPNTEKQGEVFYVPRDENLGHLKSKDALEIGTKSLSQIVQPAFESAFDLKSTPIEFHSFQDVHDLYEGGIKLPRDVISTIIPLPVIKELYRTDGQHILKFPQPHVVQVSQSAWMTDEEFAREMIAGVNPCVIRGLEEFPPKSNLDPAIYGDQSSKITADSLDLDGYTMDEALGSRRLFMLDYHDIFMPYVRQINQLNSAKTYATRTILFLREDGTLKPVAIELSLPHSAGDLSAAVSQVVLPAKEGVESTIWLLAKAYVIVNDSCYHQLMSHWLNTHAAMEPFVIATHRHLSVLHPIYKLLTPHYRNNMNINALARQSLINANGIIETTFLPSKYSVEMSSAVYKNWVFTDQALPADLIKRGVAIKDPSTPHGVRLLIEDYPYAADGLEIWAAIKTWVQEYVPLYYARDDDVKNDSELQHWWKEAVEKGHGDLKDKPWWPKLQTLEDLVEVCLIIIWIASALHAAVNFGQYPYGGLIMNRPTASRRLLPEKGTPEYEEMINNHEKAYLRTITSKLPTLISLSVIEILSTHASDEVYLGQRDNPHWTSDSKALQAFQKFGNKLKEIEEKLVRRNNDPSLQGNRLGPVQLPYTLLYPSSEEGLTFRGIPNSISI
Procedure: Many research groups have used readily obtainable soybean lipoxygenase, which is a homologue of mammalian lipoxygenase and well studied. Due to its availability and its well-characterised crystal structure, soybean LOX was selected to be used in this study.
In vitro study was evaluated as reported previously by our group. The tested compounds were incubated at room temperature with sodium linoleate (0.1 mM) and 0.2 mL of enzyme solution (1/9 × 104 w/v in saline). The method was based to the conversion of sodium linoleate to 13-hydroperoxylinoleic acid at 234 nm. […] In order to determine the IC50 values different concentrations were used.

[3] = ABTS+• decolorization assay; format: biochemical; details: 1 min, 734 nm
Procedure: No role for lipophilicity was found. Oxidation of ABTS with potassium persulfate generates directly the ABTS radical cation (ABTS^+•) with no involvement of an intermediary radical, which is then reduced upon adding electron-donating antioxidants.
In order to produce the ABTS radical cation (ABTS^+•), ABTS stock solution in water (7 mM) was mixed with potassium persulfate (2.45 mM) and left in the dark at room temperature for 12–16 h before use. Our published experimental technique was used (Table 2). The results are recorded after 1 min of the mixing solutions at 734 nm. The results were compared to the appropriate standard inhibitor Trolox.

[4] = Reducing activity of the stable radical DPPH; format: biochemical
Procedure: The substituted acids were monitored for the antioxidant activity by the use of the stable 2,2-diphenyl-1-picrylhydrazyl radical (DPPH) at concentration 50 µM and 100 µM after 20 and 60 min (Table 1). In this assay the DPPH radical is reduced by single electron transfer from the antioxidant. Strong antioxidants are the phenoxide anions from phenolic compounds like catechol and derivatives, such as nordihydroguaretic acid (NDGA), the reference compound. The compounds presented medium reducing abilities from 29–61%, due to steric reasons; small differences were found among the compounds with time and concentration. 4-Br-substituted-3 phenyl acetic acid derivatives (Series I) are equipotent to 4-OH-substituted-3 phenyl acetic acid derivatives (Series II). No differences were observed between 4i and 5i and 4ii and 5ii.
To a solution of DPPH in absolute ethanol an equal volume of the compounds dissolved in DMSO was added. The final concentrations of the measured solutions of the novel acids were 50 and 100 µM starting from a stock solution (10 mM) in DMSO. The absorbance was recorded at 517 nm, after 20 and 60 min at room temperature (Table 1).

[5] = Competition with DMSO for hydroxyl radicals (Fe3+/ascorbic acid system); format: biochemical; details: hydroxyl radical scavenging
Procedure: Competition of the novel substituted acids with DMSO for hydroxyl radicals was measured. Hydroxyl radicals were generated using the Fe^3+/ascorbic acid system and expressed as a percentage inhibition of formaldehyde production in the presence of each compound at 100 μM (Table 2). All the synthesized derivatives strongly scavenge hydroxyl radicals at 100 μM in comparison to the reference compound Trolox.
The hydroxyl radicals generated by the Fe^3+/ascorbic acid system, were detected by the determination of formaldehyde produced from the oxidation of DMSO (Table 2). Trolox was used as reference compound [17, 18, 28].

[6] = Inhibition of linoleic acid peroxidation (AAPH); format: biochemical; details: anti-lipid peroxidation
Text: We also used water-soluble 2,2′-[…](2-amidinopropane) hydrochloride (AAPH) for the generation of free radicals. AAPH has been extensively used as a clean and controllable source of thermally produced alkylperoxyl free radicals. The peroxyl radicals produced by the action of AAPH show total similarity to cellular activities such as lipid peroxidation. […] It seems that the presence of 3,5-di-tert-butyl-group greatly enhances protection against lipid peroxidation (6i/ii and 7i/ii followed by 3ii and 5ii). The lipid peroxidation inhibitory activity seems to be concentration dependent.
2,2’-Azobis(2-amidinopropane) dihydrochloride (AAPH) was used as a free radical initiator to start the oxidation reaction. The method was based on the production of conjugated diene hydroperoxide by oxidation of linoleic acid at 234 nm expressed as an increased absorption. Trolox was used as reference compound (93%) (Table 2).

Structure (SMILES)	RM (±SD) [2]	IC50 (soybean lipoxygenase) [µM]	melting point [°C]	O2−•% 100 µM [1] [%]	ABTS+•% 100 µM [3]	RA% 50 µM 20 min [4] [%]	RA% 50 µM 60 min [4] [%]	RA% 100 µM 20 min [4] [%]	RA% 100 µM 60 min [4] [%]	HO•% 100 µM [5] [%]	AAPH% 50 µM [6] [%]	AAPH% 100 µM [6] [%]	AAPH lipid peroxidation inhibition at 10 μΜ ([6]; 10 μΜ) [%]
O=C(O)C(=Cc1cccc(Oc2ccccc2)c1)c1ccc(O)cc1 [Compound 1ii, 2-(4-Hydroxyphenyl)-3-(3-phenoxyphenyl)acrylic acid]	−0.537 (0.002)	91.5	105 to 107	8	83.4% and 83%	40	39	45	47	100	22	94	–
O=C(O)/C=C/c1ccc(O)c(O)c1 [CA, Caffeic acid, reference compound]	–	–	–	23	–	–	–	–	–	–	–	–	–
CC(=Cc1ccccc1)C=C(C(=O)O)c1ccc(Br)cc1 [Compound 5i, 2-(4-Bromophenyl)-4-methyl-5-phenylpenta-2,4-dienoic acid]	0.683 (0.015)	77.5	128 to 129	–	30%	33	33	36	38	82	10	98	9.6
Cc1c(C)c2c(c(C)c1O)CCC(C)(C(=O)O)O2 (stereo not shown) [Trolox, reference compound]	–	–	–	–	88%	–	–	–	–	73	–	93	–
CC(Cc1ccc(O)c(O)c1)C(C)Cc1ccc(O)c(O)c1 (stereo not shown) [NDGA, nordihydroguaretic acid, reference compound]	–	–	–	–	–	81	83	87	93	–	–	–	–
O=C(O)C(=Cc1ccc(OCc2ccc(Br)cc2)cc1)c1ccc(O)cc1 [Compound 2ii, 3-(4-((4-Bromobenzyl)oxy)phenyl)-2-(4-hydroxyphenyl)acrylic acid]	0.061 (0.007)	77	–	–	47%	36	37	43	56	99	49	87	–

Now from value to compound, other results behind:

RM (±SD) [2]	IC50 (soybean lipoxygenase) [µM]	melting point [°C]	Structure (SMILES)	O2−•% 100 µM [1] [%]	ABTS+•% 100 µM [3]	RA% 50 µM 20 min [4] [%]	RA% 50 µM 60 min [4] [%]	RA% 100 µM 20 min [4] [%]	RA% 100 µM 60 min [4] [%]	HO•% 100 µM [5] [%]	AAPH% 50 µM [6] [%]	AAPH% 100 µM [6] [%]	AAPH lipid peroxidation inhibition at 10 μΜ ([6]; 10 μΜ) [%]
0.605 (0.016)	76	–	O=C(O)C(=Cc1ccc(OCc2ccc(Br)cc2)cc1)c1ccc(Br)cc1 [Compound 2i, 3-(4-((4-Bromobenzyl)oxy)phenyl)-2-(4-bromophenyl)acrylic acid]	–	32%	35	34	37	40	95	48	96	–
0.622 (0.025)	74	134 to 136	CC(C)(C)c1cc(C=C(C(=O)O)c2ccc(O)cc2)c(O)c(C(C)(C)C)c1 [Compound 6ii, 3-(3,5-di-tert-Butyl-2-hydroxyphenyl)-2-(4-hydroxyphenyl)acrylic acid]	–	38%	43	36	31	36	100	64	96	–
0.480 (0.035)	60	168 to 170	CC(C)(C)c1cc(C=C(C(=O)O)c2ccc(Br)cc2)c(O)c(C(C)(C)C)c1 [Compound 6i, 2-(4-Bromophenyl)-3-(3,5-di-tert-butyl-2-hydroxyphenyl)acrylic acid]	–	53%	38	36	44	39	100	56	100	–
0.582 (0.037)	7.4	120 to 121	CN(C)c1ccc(C=CC=C(C(=O)O)c2ccc(Br)cc2)cc1 [Compound 3i, 2-(4-Bromophenyl)-5-(4-(dimethylamino)phenyl)penta-2,4-dienoic acid]	–	83.4% and 83%	34	37	48	51	100	43	88	–
